Test results reported in US9586959B2, “Substituted tricyclic heterocycles as histamine 4 receptor inhibitors” (C&C RESEARCH LABORATORIES, priority 2011, dated 2017).

What was measured:
[1] = test system: oxazolone-induced atopic dermatitis, Balb/c mice; assay: Oxazolone-induced atopic dermatitis model in Balb/c mice; format: in vivo; conditions: BID, oral, days 8-28
Description: Female, Balb/c mice (6 weeks old, 20±3 g) were purchased from OrientBio Co., Ltd. The animals were housed under conditions of controlled temperature (23±3° C.), humidity (50±5%) and lighting with food and water available ad libitum.
On the beginning day (day 1), mice were sensitized by the topical application of 50 μL of 1% oxazolone in acetone and olive oil (4:1 ratio) on the abdominal skin. On day 8, 10, 12, 15, 17, 19, 22, 24 and 26, 25 μL of 0.2% oxazolone was applied topically on the inner side of right ear of each mouse. Between days 8 and 28, the compound of the invention was administered orally (10 mL/kg) twice a day in the morning and afternoon, and on days 12, 19 and 27, the thickness of the right ear of the mouse was measured. On day 28, the ear tissue of the mouse was extracted, fixed in 10% formalin solution, and then a tissue slide was prepared, stained with H&E (hematoxylin & eosin), and then the thickness of the ear was observed (Journal of Investigative Dermatology, 2008, 128, 79-86). Statistical analysis was analyzed using one-way ANOVA with Dunnett test. Values of p<0.05 were considered statistically significant.

[2] = test system: Dermatophagoides farina-induced atopic dermatitis, NC/Nga mice; assay: Dermatophagoides farina-induced atopic dermatitis NC/Nga mouse model; format: in vivo; conditions: BID, oral, 3 weeks, control group (Df) 9.0
Description: Female, NC/Nga mice (3 weeks old, 15-17 g) were purchased from Central Lab. Animal Inc. The animals were housed in conditions of controlled temperature (23±3° C.), humidity (50±5%) and lighting with food and water available ad libitum.
The hair of back of the mice was shaved with clipper, and the remaining hair was removed completely using shaving cream. For barrier disruption, 150 μL of 4% sodium dodecyl sulfate (SDS) was applied to the shaved back skin The Df ointment (100 mg/mouse) was applied twice a week for 3 weeks. The compound were administered orally twice a day in the morning and afternoon for 3 weeks, and then the severity of dermatitis was evaluated on days 2, 7, 10, 14 and 21. The development of (1) erythema/haemorrhage, (2) scarring/dryness, (3) oedema, (4) excoriation/erosion was scored as 0 (none), 1 (mild), 2 (moderate) and 3 (severe). The total skin score was defined as the sum of the individual scores. (Scandinavian Journal of Immunol. 2011, 73, 536-545). Statistical analysis was analyzed using one-way ANOVA with Dunnett test. Values of p<0.05 were considered statistically.

CNC1CN(c2nc3ncc(Br)cc3n3nnnc23)C1 [Compound 95, 1-(8-Bromopyrido[2,3-e]tetrazolo[1,5-a]pyrazin-4-yl)-N-methylazetidin-3-amine]
Ear epidermis thickness (% change from control group) ([1]; 50 mg/kg): 34.9%

CNC1CN(c2nc3ncc(Br)cc3n3cnnc23)C1 [Compound 24, 1-(8-Bromopyrido[2,3-e][1,2,4]triazolo[4,3-a]pyrazin-4-yl)-N-methylazetidin-3-amine]
Ear epidermis thickness (% change from control group) ([1]; 100 mg/kg): 51.2^1% | Scoring of Skin lesions (day 21) ([2]; 25 mg/kg): 7.2 | Scoring of Skin lesions (day 21) ([2]; 50 mg/kg): 4.4^1

CN1CCN(c2nc3ncc(Cl)cc3n3cnnc23)CC1 [Compound 4, 8-Chloro-4-(4-methylpiperazin-1-yl)pyrido[2,3-e][1,2,4]triazolo[4,3-a]pyrazine]
Ear epidermis thickness (% change from control group) ([1]; 100 mg/kg): 47.2%
